Reference: patent US20230111310A1, “CARBOXYLIC ACID DERIVATIVE-SUBSTITUTED IMINO ARYL COMPOUND, PREPARATION METHOD THEREFOR, HERBICIDAL COMPOSITION AND USE THEREOF” (Qingdao Kingagroot Chemical Compound Co., Ltd., priority 2020, published 2023)

Tests used:
Assay in all cases: Weeding effect in post-emergence stage
Type in all cases: in vivo
Eleusine indica = settings: for Weeding effect in post-emergence stage, Eleusine indica: level of fresh weight growth control rate; for Weeding effect in post-emergence stage, Eleusine indica (level): fresh weight control rate level
Procedure, shortened: (§1)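 Doses of 500, 250, 125, 60, 30, 15 and 7.5 g/ha, with methyl oleate synergist (1.5 liter/ha) and Tween 80 from acetone solution, applied by spray tower post-emergence (2–3 leaf stage). Weed control scored after 3 further greenhouse weeks, averaged over triplicates.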

Alopecurus japonicus = settings: for Weeding effect in post-emergence stage, Alopecurus japonicus: level of fresh weight growth control rate; for Weeding effect in post-emergence stage, Alopecurus japonicus (level): fresh weight control rate level
Procedure, shortened: as §1

Setaria viridis = settings: for Weeding effect in post-emergence stage, Setaria viridis: level of fresh weight growth control rate; for Weeding effect in post-emergence stage, Setaria viridis (level): fresh weight control rate level
Procedure, shortened: as §1

Abutilon theophrasti = settings: for Weeding effect in post-emergence stage, Abutilon theophrasti: level of fresh weight growth control rate; for Weeding effect in post-emergence stage, Abutilon theophrasti (level): fresh weight control rate level
Procedure, shortened: as §1

Digitaria sanguinalis = settings: for Weeding effect in post-emergence stage, Digitaria sanguinalis: level of fresh weight growth control rate; for Weeding effect in post-emergence stage, Digitaria sanguinalis (level): fresh weight control rate level
Procedure, shortened: as §1

Echinochloa crusgalli = settings: for Weeding effect in post-emergence stage, Echinochloa crusgalli: level of fresh weight growth control rate; for Weeding effect in post-emergence stage, Echinochloa crusgalli (level): fresh weight control rate level
Procedure, shortened: as §1

SMILES: CCCCOC(=O)C(C)O/N=C/c1cc(-n2c(=O)cc(C(F)(F)F)n(C)c2=O)c(F)cc1Cl (racemic) [Compound 200]
- Weeding effect in post-emergence stage, Eleusine indica (Eleusine indica; Dose 15 g/ha): 5 (Level 5: growth control rate is above 85%)
- Weeding effect in post-emergence stage, Alopecurus japonicus (Alopecurus japonicus; Dose 15 g/ha): 5 (Level 5: growth control rate is above 85%)
- Weeding effect in post-emergence stage, Setaria viridis (Setaria viridis; Dose 15 g/ha): 5 (Level 5: growth control rate is above 85%)
- Weeding effect in post-emergence stage, Abutilon theophrasti (Abutilon theophrasti; Dose 15 g/ha): 5 (Level 5: growth control rate is above 85%)
- Weeding effect in post-emergence stage, Digitaria sanguinalis (Digitaria sanguinalis; Dose 15 g/ha): 5 (Level 5: growth control rate is above 85%)
- Weeding effect in post-emergence stage, Echinochloa crusgalli (Echinochloa crusgalli; Dose 15 g/ha): 5 (Level 5: growth control rate is above 85%)

SMILES: CCCOC(=O)C(C)O/N=C/c1cc(-n2c(=O)cc(C(F)(F)F)n(C)c2=O)c(F)cc1Cl (racemic) [Compound 198]
- Weeding effect in post-emergence stage, Eleusine indica (Eleusine indica; Dose 15 g/ha): 5 (Level 5: growth control rate is above 85%)
- Weeding effect in post-emergence stage, Alopecurus japonicus (Alopecurus japonicus; Dose 15 g/ha): 5 (Level 5: growth control rate is above 85%)
- Weeding effect in post-emergence stage, Setaria viridis (Setaria viridis; Dose 15 g/ha): 5 (Level 5: growth control rate is above 85%)
- Weeding effect in post-emergence stage, Abutilon theophrasti (Abutilon theophrasti; Dose 15 g/ha): 5 (Level 5: growth control rate is above 85%)
- Weeding effect in post-emergence stage, Digitaria sanguinalis (Digitaria sanguinalis; Dose 15 g/ha): 5 (Level 5: growth control rate is above 85%)
- Weeding effect in post-emergence stage, Echinochloa crusgalli (Echinochloa crusgalli; Dose 15 g/ha): 5 (Level 5: growth control rate is above 85%)

SMILES: CCOC(=O)COC(=O)[C@@H](C)O/N=C/c1cc(-n2c(=O)n(C)c(=S)n(C)c2=O)c(F)cc1Cl [17(R)]
- Weeding effect in post-emergence stage, Eleusine indica (Eleusine indica; Dose 15 g/ha): 5 (Level 5: growth control rate is above 85%)
- Weeding effect in post-emergence stage, Alopecurus japonicus (Alopecurus japonicus; Dose 15 g/ha): 5 (Level 5: growth control rate is above 85%)
- Weeding effect in post-emergence stage, Setaria viridis (Setaria viridis; Dose 15 g/ha): 5 (Level 5: growth control rate is above 85%)
- Weeding effect in post-emergence stage, Abutilon theophrasti (Abutilon theophrasti; Dose 15 g/ha): 5 (Level 5: growth control rate is above 85%)
- Weeding effect in post-emergence stage, Digitaria sanguinalis (Digitaria sanguinalis; Dose 15 g/ha): 5 (Level 5: growth control rate is above 85%)
- Weeding effect in post-emergence stage, Echinochloa crusgalli (Echinochloa crusgalli; Dose 15 g/ha): 5 (Level 5: growth control rate is above 85%)

SMILES: C[C@@H](O/N=C/c1cc(-n2c(=O)cc(C(F)(F)F)n(C)c2=O)c(F)cc1Cl)C(=O)OCCC#N [227(R)]
- Weeding effect in post-emergence stage, Eleusine indica (Eleusine indica; Dose 15 g/ha): 5 (Level 5: growth control rate is above 85%)
- Weeding effect in post-emergence stage, Alopecurus japonicus (Alopecurus japonicus; Dose 15 g/ha): 5 (Level 5: growth control rate is above 85%)
- Weeding effect in post-emergence stage, Setaria viridis (Setaria viridis; Dose 15 g/ha): 5 (Level 5: growth control rate is above 85%)
- Weeding effect in post-emergence stage, Abutilon theophrasti (Abutilon theophrasti; Dose 15 g/ha): 5 (Level 5: growth control rate is above 85%)
- Weeding effect in post-emergence stage, Digitaria sanguinalis (Digitaria sanguinalis; Dose 15 g/ha): 5 (Level 5: growth control rate is above 85%)
- Weeding effect in post-emergence stage, Echinochloa crusgalli (Echinochloa crusgalli; Dose 15 g/ha): 5 (Level 5: growth control rate is above 85%)

SMILES: CC(=NC(=O)C(C)ON=Cc1cc(-n2c(=O)cc(C(F)(F)F)n(C)c2=O)c(F)cc1Cl)c1ccccc1 (stereo not drawn) [Compound 453]
- Weeding effect in post-emergence stage, Eleusine indica (level) (Eleusine indica; Dose 30 g/ha): 5 (Level 5: growth control rate is above 85%)
- Weeding effect in post-emergence stage, Alopecurus japonicus (level) (Alopecurus japonicus; Dose 30 g/ha): 5 (Level 5: growth control rate is above 85%)
- Weeding effect in post-emergence stage, Setaria viridis (level) (Setaria viridis; Dose 30 g/ha): 5 (Level 5: growth control rate is above 85%)
- Weeding effect in post-emergence stage, Abutilon theophrasti (level) (Abutilon theophrasti; Dose 30 g/ha): 5 (Level 5: growth control rate is above 85%)
- Weeding effect in post-emergence stage, Digitaria sanguinalis (level) (Digitaria sanguinalis; Dose 30 g/ha): 5 (Level 5: growth control rate is above 85%)
- Weeding effect in post-emergence stage, Echinochloa crusgalli (level) (Echinochloa crusgalli; Dose 30 g/ha): 5 (Level 5: growth control rate is above 85%)

SMILES: CC(O/N=C/c1cc(-n2c(=O)cc(C(F)(F)F)n(C)c2=O)c(F)cc1Cl)C(=O)OCCC(F)(F)F (racemic) [Compound 221]
- Weeding effect in post-emergence stage, Eleusine indica (Eleusine indica; Dose 15 g/ha): 5 (Level 5: growth control rate is above 85%)
- Weeding effect in post-emergence stage, Alopecurus japonicus (Alopecurus japonicus; Dose 15 g/ha): 4 (Level 4: growth control rate is greater than or equal to 60% and less than 85%)
- Weeding effect in post-emergence stage, Setaria viridis (Setaria viridis; Dose 15 g/ha): 5 (Level 5: growth control rate is above 85%)
- Weeding effect in post-emergence stage, Abutilon theophrasti (Abutilon theophrasti; Dose 15 g/ha): 5 (Level 5: growth control rate is above 85%)
- Weeding effect in post-emergence stage, Digitaria sanguinalis (Digitaria sanguinalis; Dose 15 g/ha): 5 (Level 5: growth control rate is above 85%)
- Weeding effect in post-emergence stage, Echinochloa crusgalli (Echinochloa crusgalli; Dose 15 g/ha): 5 (Level 5: growth control rate is above 85%)

SMILES: CC(=O)COC(=O)[C@@H](C)O/N=C/c1cc(-n2c(=O)cc(C(F)(F)F)n(C)c2=O)c(F)cc1Cl [238(R)]
- Weeding effect in post-emergence stage, Eleusine indica (Eleusine indica; Dose 15 g/ha): 5 (Level 5: growth control rate is above 85%)
- Weeding effect in post-emergence stage, Alopecurus japonicus (Alopecurus japonicus; Dose 15 g/ha): 5 (Level 5: growth control rate is above 85%)
- Weeding effect in post-emergence stage, Setaria viridis (Setaria viridis; Dose 15 g/ha): 5 (Level 5: growth control rate is above 85%)
- Weeding effect in post-emergence stage, Abutilon theophrasti (Abutilon theophrasti; Dose 15 g/ha): 5 (Level 5: growth control rate is above 85%)
- Weeding effect in post-emergence stage, Digitaria sanguinalis (Digitaria sanguinalis; Dose 15 g/ha): 5 (Level 5: growth control rate is above 85%)
- Weeding effect in post-emergence stage, Echinochloa crusgalli (Echinochloa crusgalli; Dose 15 g/ha): 5 (Level 5: growth control rate is above 85%)

SMILES: COC(=O)C(Cc1ccccc1)O/N=C/c1cc(-n2c(=O)cc(C(F)(F)F)n(C)c2=O)c(F)cc1Cl (racemic) [Compound 469]
- Weeding effect in post-emergence stage, Eleusine indica (level) (Eleusine indica; Dose 15 g/ha): 5 (Level 5: growth control rate is above 85%)
- Weeding effect in post-emergence stage, Alopecurus japonicus (level) (Alopecurus japonicus; Dose 15 g/ha): 5 (Level 5: growth control rate is above 85%)
- Weeding effect in post-emergence stage, Setaria viridis (level) (Setaria viridis; Dose 15 g/ha): 5 (Level 5: growth control rate is above 85%)
- Weeding effect in post-emergence stage, Abutilon theophrasti (level) (Abutilon theophrasti; Dose 15 g/ha): 5 (Level 5: growth control rate is above 85%)
- Weeding effect in post-emergence stage, Digitaria sanguinalis (level) (Digitaria sanguinalis; Dose 15 g/ha): 5 (Level 5: growth control rate is above 85%)
- Weeding effect in post-emergence stage, Echinochloa crusgalli (level) (Echinochloa crusgalli; Dose 15 g/ha): 5 (Level 5: growth control rate is above 85%)

SMILES: CC(O/N=C/c1cc(-n2c(=O)cc(C(F)(F)F)n(C)c2=O)c(F)cc1Cl)C(=O)OCC(C)(F)F (racemic) [Compound 220]
- Weeding effect in post-emergence stage, Eleusine indica (Eleusine indica; Dose 15 g/ha): 5 (Level 5: growth control rate is above 85%)
- Weeding effect in post-emergence stage, Alopecurus japonicus (Alopecurus japonicus; Dose 15 g/ha): 5 (Level 5: growth control rate is above 85%)
- Weeding effect in post-emergence stage, Setaria viridis (Setaria viridis; Dose 15 g/ha): 5 (Level 5: growth control rate is above 85%)
- Weeding effect in post-emergence stage, Abutilon theophrasti (Abutilon theophrasti; Dose 15 g/ha): 5 (Level 5: growth control rate is above 85%)
- Weeding effect in post-emergence stage, Digitaria sanguinalis (Digitaria sanguinalis; Dose 15 g/ha): 5 (Level 5: growth control rate is above 85%)
- Weeding effect in post-emergence stage, Echinochloa crusgalli (Echinochloa crusgalli; Dose 15 g/ha): 5 (Level 5: growth control rate is above 85%)

SMILES: COC(=O)C(CCCl)O/N=C/c1cc(-n2c(=O)cc(C(F)(F)F)n(C)c2=O)c(F)cc1Cl (stereo not drawn) [Compound 497]
- Weeding effect in post-emergence stage, Eleusine indica (level) (Eleusine indica; Dose 15 g/ha): 5 (Level 5: growth control rate is above 85%)
- Weeding effect in post-emergence stage, Alopecurus japonicus (level) (Alopecurus japonicus; Dose 15 g/ha): 5 (Level 5: growth control rate is above 85%)
- Weeding effect in post-emergence stage, Setaria viridis (level) (Setaria viridis; Dose 15 g/ha): 5 (Level 5: growth control rate is above 85%)
- Weeding effect in post-emergence stage, Abutilon theophrasti (level) (Abutilon theophrasti; Dose 15 g/ha): 5 (Level 5: growth control rate is above 85%)
- Weeding effect in post-emergence stage, Digitaria sanguinalis (level) (Digitaria sanguinalis; Dose 15 g/ha): 5 (Level 5: growth control rate is above 85%)
- Weeding effect in post-emergence stage, Echinochloa crusgalli (level) (Echinochloa crusgalli; Dose 15 g/ha): 5 (Level 5: growth control rate is above 85%)

SMILES: CCCCCCCOC(=O)C(C)O/N=C/c1cc(-n2c(=O)cc(C(F)(F)F)n(C)c2=O)c(F)cc1Cl (racemic) [Compound 205]
- Weeding effect in post-emergence stage, Eleusine indica (Eleusine indica; Dose 15 g/ha): 5 (Level 5: growth control rate is above 85%)
- Weeding effect in post-emergence stage, Alopecurus japonicus (Alopecurus japonicus; Dose 15 g/ha): 5 (Level 5: growth control rate is above 85%)
- Weeding effect in post-emergence stage, Setaria viridis (Setaria viridis; Dose 15 g/ha): 5 (Level 5: growth control rate is above 85%)
- Weeding effect in post-emergence stage, Abutilon theophrasti (Abutilon theophrasti; Dose 15 g/ha): 5 (Level 5: growth control rate is above 85%)
- Weeding effect in post-emergence stage, Digitaria sanguinalis (Digitaria sanguinalis; Dose 15 g/ha): 5 (Level 5: growth control rate is above 85%)
- Weeding effect in post-emergence stage, Echinochloa crusgalli (Echinochloa crusgalli; Dose 15 g/ha): 5 (Level 5: growth control rate is above 85%)

SMILES: COC(=O)C(C)O/N=C/c1cc(-n2c(=O)c(C)c(C(F)(F)F)n(C)c2=O)c(F)cc1Cl (racemic) [Compound 473]
- Weeding effect in post-emergence stage, Eleusine indica (level) (Eleusine indica; Dose 30 g/ha): 5 (Level 5: growth control rate is above 85%)
- Weeding effect in post-emergence stage, Alopecurus japonicus (level) (Alopecurus japonicus; Dose 30 g/ha): 5 (Level 5: growth control rate is above 85%)
- Weeding effect in post-emergence stage, Setaria viridis (level) (Setaria viridis; Dose 30 g/ha): 5 (Level 5: growth control rate is above 85%)
- Weeding effect in post-emergence stage, Abutilon theophrasti (level) (Abutilon theophrasti; Dose 30 g/ha): 5 (Level 5: growth control rate is above 85%)
- Weeding effect in post-emergence stage, Digitaria sanguinalis (level) (Digitaria sanguinalis; Dose 30 g/ha): 5 (Level 5: growth control rate is above 85%)
- Weeding effect in post-emergence stage, Echinochloa crusgalli (level) (Echinochloa crusgalli; Dose 30 g/ha): 5 (Level 5: growth control rate is above 85%)

SMILES: CCOC(=O)[C@@H](C)O/N=C/c1cc(-n2c(=O)n(C)c(=S)n(C)c2=O)c(F)cc1C(F)(F)F [86(R)]
- Weeding effect in post-emergence stage, Eleusine indica (Eleusine indica; Dose 15 g/ha): 5 (Level 5: growth control rate is above 85%)
- Weeding effect in post-emergence stage, Alopecurus japonicus (Alopecurus japonicus; Dose 15 g/ha): 3 (Level 3: growth control rate is greater than or equal to 40% and less than 60%)
- Weeding effect in post-emergence stage, Setaria viridis (Setaria viridis; Dose 15 g/ha): 4 (Level 4: growth control rate is greater than or equal to 60% and less than 85%)
- Weeding effect in post-emergence stage, Abutilon theophrasti (Abutilon theophrasti; Dose 15 g/ha): 5 (Level 5: growth control rate is above 85%)
- Weeding effect in post-emergence stage, Digitaria sanguinalis (Digitaria sanguinalis; Dose 15 g/ha): 3 (Level 3: growth control rate is greater than or equal to 40% and less than 60%)
- Weeding effect in post-emergence stage, Echinochloa crusgalli (Echinochloa crusgalli; Dose 15 g/ha): 4 (Level 4: growth control rate is greater than or equal to 60% and less than 85%)
